Here are results for four molecules from article PMC4407906, “Structure-Guided Engineering of Molinate Hydrolase for the Degradation of Thiocarbamate Pesticides” (PLoS ONE, 2015).

Data set [1] concerns the target T1, molinate hydrolase (Gulosibacter molinativorax, UniProt G2XLB0).
T1 construct: gene molA; recombinant protein with a 32 amino acid purification tag
Briefly: HPLC assay of molinate depletion with purified recombinant enzyme; competitive inhibition fit. It is filed as biochemical.

Data set [2] has as its target T1, molinate hydrolase. Briefly: UV spectrophotometric molinate depletion at […] nm, […] L-cysteine. It is filed as biochemical.
Data set [3] has as its target T1, molinate hydrolase. Kind of data set: UV spectrophotometric molinate depletion at […] nm, […] 2-mercaptoethanol. In kind it is biochemical.
Data set [4] concerns the molecule itself. Kind of data set: crystal structure; recombinant molinate hydrolase co-crystallised with ZnCl2 (4 or 8 mM), vapour diffusion at 20°C, sodium citrate pH 5.6-6.4, 2-propanol, PEG 4000, glycerol; monoclinic C2 with 8 monomers and orthorhombic with 4 monomers in the asymmetric unit.

T1 sequence (G2XLB0 entry or part of it): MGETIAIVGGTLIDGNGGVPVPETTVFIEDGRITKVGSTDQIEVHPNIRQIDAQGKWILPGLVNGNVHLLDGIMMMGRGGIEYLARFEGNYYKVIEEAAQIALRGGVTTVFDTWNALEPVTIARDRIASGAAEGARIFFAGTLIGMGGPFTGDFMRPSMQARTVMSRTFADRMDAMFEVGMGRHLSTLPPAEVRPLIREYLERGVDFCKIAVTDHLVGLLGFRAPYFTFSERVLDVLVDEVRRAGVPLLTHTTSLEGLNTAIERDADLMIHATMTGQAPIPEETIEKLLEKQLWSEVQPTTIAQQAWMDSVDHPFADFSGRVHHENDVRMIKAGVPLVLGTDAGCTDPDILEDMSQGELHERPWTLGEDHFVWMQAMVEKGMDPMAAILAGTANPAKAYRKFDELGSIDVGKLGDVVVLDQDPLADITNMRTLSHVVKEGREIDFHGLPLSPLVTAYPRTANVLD

Usually Ki stands for a dissociation constant, usually derived from enzyme kinetics or from competition with a known ligand. Regarding `CCS` [ethanethiol], at molinate hydrolase [1], the Ki is 300 µM.

Consider `N[C@@H](CS)C(=O)O` [L-cysteine], for which the “UV spectrophotometric molinate depletion at 220 nm, 1.5 mM L-cysteine” value on molinate hydrolase [2] is “cysteine also inhibits the enzyme activity, while serine and methionine do not”. `OCCS` [2-mercaptoethanol]: the “UV spectrophotometric molinate depletion at 220 nm, 3 mM 2-mercaptoethanol” value at molinate hydrolase [3] was “other thiolated compounds, such as β-mercaptoethanol, also inhibited molinate hydrolase”.

B1: recombinant molinate hydrolase (enzyme, Gulosibacter molinativorax ON4T)
chain: GETIAIVGGTLIDGNGGVPVPETTVFIEDGRITKVGSTDQIEVHPNIRQIDAQGKWILPGLVNGNVHLLDGIMMMGRGGIEYLARFEGNYYKVIEEAAQIALRGGVTTVFDTWNALEPVTIARDRIASGAAEGARIFFAGTLIGMGGPFTGDFMRPSMQARTVMSRTFADRMDAMFEVGMGRHLSTLPPAEVRPLIREYLERGVDFCKIAVTDHLVGLLGFRAPYFTFSERVLDVLVDEVRRAGVPLLTHTTSLEGLNTAIERDADLMIHATMTGQAPIPEETIEKLLEKQLWSEVQPTTIAQQAWMDSVDHPFADFSGRVHHENDVRMIKAGVPLVLGTDAGCTDPDILEDMSQGELHERPWTLGEDHFVWMQAMVEKGMDPMAAILAGTANPAKAYRKFDELGSIDVGKLGDVVVLDQDPLADITNMRTLSHVVKEGREIDFHGLPLSPLVTAYPRTANVLD
notes: molinate hydrolase (MolA) from Gulosibacter molinativorax ON4T; 1984 residues expected for 4 monomers (496 each, tag included); One Zn2+ per monomer (occupancy set to 0.4) in the deposited structure; A SeMet derivative (from E. coli B834 (DE3), metal-depleted) was also solved, with the same overall structure; also called MolA; source: E. coli JM109 or B834 (DE3), vector pASKmolA, purified …
What is called stoichiometry N is a count of units in the complex or per binding partner. In the case of B1, in data set [4], the “stoichiometry N” value stood at 4.
